Results reported in patent US12144851B2, “Vaccinal strategy” (INSERM (INSTITUT NATIONAL DE LA SANTÉ ET DE LA RECHERCHE …, priority 2018, dated 2024).
Where a SMILES comes first, the peptide text is derived from it.

Key:
[1] = system: CD4 MELOE-113-27-specific T cell clone (HLA DRB1*01 restricted)
Description: MELOE-111-46 native long peptide and SLP with the linker GGGG (SEQ ID NO:160) were used as controls.

[2] = system: CD8+ splenocytes restimulated with MELOE-136-44; assay: Immunization of transgenic mice with SLP, CD8 ELISpot-IFN-g; type: in vivo, HLA-DRB1*0101/HLA-A*0201 transgenic mice; details: INFg-ELIspot; positive if spots more than twice background and above ten; s.c. 100 μg prime, 50 μg boosts, IFA + polyI:C
Protocol: CD8+ splenocytes from immunized mice were tested by INFg-ELIspot following restimulation with the short epitope MELOE-136-44. Mice were considered positive if the number of spots after restimulation were more than twice the background level and above ten spots.
HLA-DRB1*0101/HLA-A*0201 transgenic mice (A2/DR1 mice) were used to evaluate immunogenicity of peptides. Group of 5 female A2/DR1 mice (6 to 10 weeks) were immunized subcutaneously with 100 μg of each peptides emulsified in incomplete Freund adjuvant (v/v) plus 50 μg of polyI:C. At day 14 and day 28 boost vaccinations were performed with 50 μg of each peptide along with the same adjuvants. All experiments were carried out according to the good laboratory practices defined by the animal experimentation Rules in France.
Specific immune responses were evaluated 10 days after the last boost by ELISpot-IFN-g (Diaclone, France). Briefly, freshly isolated splenocytes or CD8 positive T cells from spleen (CD8+ T Cell Isolation Kit, Miltenyi Biotec) were incubated (2.105 cells per well) during 15-20 hours in ELISpot plate in the presence of the class I MELOE-1 epitope (5 μg/ml final) or medium (X-vivo, as negative control) or PMA-ionomycin (positive control). Ex vivo CD4 T cell responses were evaluated on the CD8 negative fraction as above with the HLA-DRB1*0101-restricted epitope MELOE-113-27. […] Spot-forming cells were counted using the «C.T.L. Immunospot» system (Cellular Technology Ltd). Results were considered positive when the ELISPOT counts were >10 spots and above 2× the background (medium). (Dosset et al Clin Cancer Res, 2012)
Finally, we explored the immunogenicity of our SLP in vivo in HLA-DRB1*0101/HLA-A*0201 transgenic mice. Mice were immunized subcutaneously with 100 μg of SLP in IFA and poly I:C and boosted at D14 and D28 with 50 μg of SLP with the same adjuvants (see M&M). We focused on cross-presentation and thus assessed CD8 T cell responses by ELISpot-IFN-g after re-stimulation with the short MELOE-1136-44 epitope (SEQ ID NO:31) or with medium alone. A mouse was considered responder when ELIspots were above 10 and at least twice about background. A typical experiment is presented in FIG. 7 comparing immunization with SLP containing MELOE-113-27 (SEQ ID NO:21) and MELOE-136-44 (SEQ ID NO:31) with linker GGGG (SEQ ID NO:160) or LLSVGG (SEQ ID NO:9). Immunization with SLP containing GGGG (SEQ ID NO:160) generated moderate CD8 responses in 3 out of five mice while immunization with SLP with LLSVGG (SEQ ID NO:9) was efficient in all 5 mice with two mice showing robust CD8 responses. Previous experiments performed with the shorter linkers LLSV (SEQ ID NO:4) or LLSVG (SEQ ID NO:8) also supported the hypothesis that our synthetic linkers favored cross-presentation when compared to either the linker GGGG or the native sequence (Table 4). In contrast, CD4 responses evaluated ex vivo towards the HLA-DRB1*0101 epitope were very low (FIG. 7C).

[3] = system: MELOE-1, HLA A*0201 restricted CD8 T cell clone; details: SLP MELOE-113-27 xxxx MELOE-136-44; TNF-a response of CD8 T cell clone to SLP-loaded DC; range over independent experiments

For `CC(C)C[C@H](NC(=O)[C@H](CO)NC(=O)[C@H](C)NC(=O)[C@@H]1CCCN1C(=O)[C@H](Cc1c[nH]c2ccccc12)NC(=O)[C@H](CS)NC(=O)[C@H](CCC(=O)O)NC(=O)[C@H](CC(=O)O)NC(=O)[C@H](CC(N)=O)NC(=O)[C@H](CC(C)C)NC(=O)[C@@H](NC(=O)CNC(=O)[C@@H](NC(=O)[C@H](CO)NC(=O)[C@H](CC(C)C)NC(=O)[C@H](CC(C)C)NC(=O)[C@H](Cc1c[nH]c2ccccc12)NC(=O)[C@@H]1CCCN1C(=O)[C@@H]1CCCN1C(=O)[C@H](CS)NC(=O)[C@H](C)NC(=O)[C@H](C)NC(=O)CNC(=O)[C@H](CCC(=O)O)NC(=O)[C@H](CO)NC(=O)[C@@H]1CCCN1C(=O)[C@H](CC(C)C)NC(=O)[C@H](Cc1ccccc1)NC(=O)[C@H](CCC(N)=O)NC(=O)[C@H](CCC(=O)O)NC(=O)[C@H](CCCNC(=N)N)NC(=O)[C@H](CO)NC(=O)[C@@H](N)[C@@H](C)O)C(C)C)[C@@H](C)O)C(=O)O` [SEQ ID NO: 89] (H-TSREQFLPSEGAACPPWLLSVGTLNDECWPASL-OH; N-terminus and C-terminus assumed), the EC50 [1] was 6.8 nM, the “CD8 responses, positive mice, Exp#2” value [2] was 2/5 and the “Fold change = EC50 (M) of MELOE-111-46/EC50 (M) SLP” value [3] was 10-20.
